Key:
[1] = system: HAP1 MTAP-deleted; test: SDMA in-cell western assay, HAP1 MTAP-deleted cell line; type: cell-based; conditions: for IC50: Homo sapiens, HAP1 MTAP-deleted cell line; for MTAP Intact/Deleted Ratio: IC50 ratio HAP1 MTAP-intact / HAP1 MTAP-deleted
Outline: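 Symmetric dimethylarginine (SDMA) levels were measured by in-cell western in MTAP-null HAP1 cells, one half of an MTAP-isogenic pair whose partner line expresses endogenous MTAP. Compound potency is reported as IC50.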

[2] = system: HAP1 MTAP-intact; test: SDMA in-cell western assay, HAP1 MTAP-intact cell line; type: cell-based; conditions: Homo sapiens
Outline: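 Symmetric dimethylarginine (SDMA) levels were measured by in-cell western in an isogenic HAP1 pair, one expressing endogenous MTAP and one MTAP-null, and IC50 values were derived for each line. Compounds whose IC50 ratio between the lines is 3-fold or more are classed as MTAP-selective.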

[3] = target: T1, PRMT5 (Homo sapiens, UniProt O14744); test: PRMT5 IC50 assay with no cofactor; type: biochemical
T1 construct: purchased Viva (custom protein)
Outline: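 Each compound is tested on PRMT5 in the presence of SAM, of MTA, and without any cofactor. Ki values are then back-calculated using fixed factors of 1.5 (SAM) and 13.5 (MTA), and the two Ki values are compared as a ratio.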

[4] = target: T1, PRMT5; test: PRMT5 IC50 assay in the presence of SAM as cofactor; type: biochemical
Outline: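 Three cofactor conditions are run: SAM-bound, MTA-bound and cofactor-free enzyme. IC50 is read from each; for the SAM and MTA arms it is divided by 1.5 and 13.5 respectively to give Ki.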

[5] = target: T1, PRMT5; test: PRMT5 IC50 assay in the presence of MTA as cofactor; type: biochemical; conditions: for IC50: PRMT5, MTA as cofactor
Outline: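 IC50 against PRMT5 determined with SAM as cofactor, with no cofactor, and with MTA as cofactor. Ki derived as IC50/1.5 for the SAM assay and IC50/13.5 for the MTA assay; SAM Ki to MTA Ki ratio also reported.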

[6] = ratio between Ki in the presence of SAM and Ki in the presence of MTA
[7] = ratio between the Ki in the presence of SAM and the Ki in the presence of MTA

T1 sequence (O14744 whole entry): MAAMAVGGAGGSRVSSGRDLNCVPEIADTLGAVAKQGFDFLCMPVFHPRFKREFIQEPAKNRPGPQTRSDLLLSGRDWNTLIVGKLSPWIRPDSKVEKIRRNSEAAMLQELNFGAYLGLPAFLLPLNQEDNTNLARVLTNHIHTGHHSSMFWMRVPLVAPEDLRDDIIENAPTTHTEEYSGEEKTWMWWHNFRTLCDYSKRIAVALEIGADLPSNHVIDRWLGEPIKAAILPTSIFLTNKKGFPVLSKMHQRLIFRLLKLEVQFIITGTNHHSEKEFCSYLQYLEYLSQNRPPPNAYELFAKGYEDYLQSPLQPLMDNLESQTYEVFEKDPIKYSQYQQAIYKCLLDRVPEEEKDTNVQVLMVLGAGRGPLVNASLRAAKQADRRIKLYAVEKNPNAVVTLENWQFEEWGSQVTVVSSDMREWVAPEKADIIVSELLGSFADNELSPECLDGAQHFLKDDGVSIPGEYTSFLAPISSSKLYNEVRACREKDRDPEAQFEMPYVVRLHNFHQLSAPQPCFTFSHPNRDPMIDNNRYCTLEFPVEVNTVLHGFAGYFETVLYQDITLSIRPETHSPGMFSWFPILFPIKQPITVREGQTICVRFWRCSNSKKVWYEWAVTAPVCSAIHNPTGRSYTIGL
T1 sequence (Q9BQA1 whole entry partner): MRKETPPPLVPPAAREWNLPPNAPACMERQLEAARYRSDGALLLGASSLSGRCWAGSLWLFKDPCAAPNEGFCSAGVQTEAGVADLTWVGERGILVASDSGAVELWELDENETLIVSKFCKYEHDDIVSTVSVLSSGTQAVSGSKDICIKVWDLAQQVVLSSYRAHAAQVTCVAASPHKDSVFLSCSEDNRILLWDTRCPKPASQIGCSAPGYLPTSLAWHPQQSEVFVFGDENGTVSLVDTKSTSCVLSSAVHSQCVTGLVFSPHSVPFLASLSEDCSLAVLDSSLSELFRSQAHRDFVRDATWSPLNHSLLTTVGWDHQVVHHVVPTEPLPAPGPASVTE

| SMILES | IC50 [1] [nM] | MTAP Intact/Deleted Ratio [1] | IC50 [2] [nM] | IC50 ([3]; read-out: No Co-factor IC50) [nM] | IC50 [4] [nM] | IC50 [5] [nM] | SAM/MTA Ratio [5, 6] | IC50 [3] [nM] | SAM/MTA Ratio [5, 7] |
| --- | --- | --- | --- | --- | --- | --- | --- | --- | --- |
| CN(C)CCOc1cc(C(=O)NC[C@H](O)CN2CCc3c(ccc(OCc4cnco4)c3Cl)C2)cc(NC2CCC2)n1 [Compound 329, (S)—N-(3-(5-chloro-6-(oxazol-5-ylmethoxy)-3N-dihydroisoquinolin-2(1H)-yl)-2-hydroxypropyl)-2-(cyclobutylamino)-6-(2-(dimethylamino)ethoxy)isonicotinamide] | 1000 to 10000 | B* (an IC50 ratio greater than or equal to 3 fold but lower than 10 fold between the IC50 in the HAP1 MTAP-intact cell line and the HAP1 MTAP-deleted cell line) | ≥ 10000 | 500 to 5000 | 50 to 500 | < 50 | A (a Ki ratio greater than or equal to 10 fold between the Ki in the presence of SAM and the Ki in the presence of MTA) |  |  |
| Cc1ncoc1COc1cc2c(cc1F)CN(C[C@@H](O)CNC(=O)c1ccnc(Nc3cccnc3)c1)CC2 [Compound 600, N-[(2S)-3-[7-fluoro-6-[(4-methyloxazol-5-yl)methoxy]-3,4-dihydro-1H-isoquinolin-2-yl]-2-hydroxy-propyl]-2-(3-pyridylamino)pyridine-4-carboxamide] | 1000 to 10000 | B* (an IC50 ratio greater than or equal to 3 fold but lower than 10 fold between the IC50 in the HAP1 MTAP-intact cell line and the HAP1 MTAP-deleted cell line) | ≥ 10000 |  | 50 to 500 | 50 to 500 |  | ≥ 5000 | A (a Ki ratio greater than or equal to 10 fold between the Ki in the presence of SAM and the Ki in the presence of MTA) |
| O=C(NC[C@H](O)CN1CCc2cc(OCc3cnco3)ccc2C1)c1ccc2c(c1)CCN(C(=O)c1ccc(Br)cc1)C2 [Compound 561] | 1000 to 10000 | B* (an IC50 ratio greater than or equal to 3 fold but lower than 10 fold between the IC50 in the HAP1 MTAP-intact cell line and the HAP1 MTAP-deleted cell line) | ≥ 10000 |  | 50 to 500 | 50 to 500 |  | 500 to 5000 | A (a Ki ratio greater than or equal to 10 fold between the Ki in the presence of SAM and the Ki in the presence of MTA) |
| Cc1ncoc1COc1ccc2c(c1)CCN(C[C@@H](O)CNC(=O)c1cc(NC3CCC3)ncc1F)C2 [Compound 614, (S)-2-(cyclobutylamino)-5-fluoro-N-(2-hydroxy-3-(6-((4-methyloxazol-5-yl)methoxy)-3,4-dihydroisoquinolin-2(1H)-yl)propyl)isonicotinamide] | < 1000 | C* (an IC50 ratio of less than 3 fold between the IC50 in the HAP1 MTAP-intact cell line and the HAP1 MTAP-deleted cell line) | 1000 to 10000 |  | 50 to 500 | 50 to 500 |  | 500 to 5000 | A (a Ki ratio greater than or equal to 10 fold between the Ki in the presence of SAM and the Ki in the presence of MTA) |
| Cc1ncoc1COc1ccc2c(c1)CCN(C[C@@H](O)CNC(=O)c1cccc(NC3CCC3)c1)C2 [Compound 283, (S)-3-(cyclobutylamino)-N-(2-hydroxy-3-(6-((4-methyloxazol-5-yl)methoxy)-3,4-dihydroisoquinolin-2(1H)-yl)propyl)benzamide] | < 1000 | C* (an IC50 ratio of less than 3 fold between the IC50 in the HAP1 MTAP-intact cell line and the HAP1 MTAP-deleted cell line) | < 1000 | ≥ 5000 | 500 to 5000 | 500 to 5000 | A (a Ki ratio greater than or equal to 10 fold between the Ki in the presence of SAM and the Ki in the presence of MTA) |  |  |
| O=C(NC[C@H](O)CN1CCc2cc(OCc3cnco3)ccc2C1)c1ccc(OC2CCN(Cc3ccccc3)CC2)cc1 [Compound 291, (S)-4-((1-benzylpiperidin-4-yl)oxy)-N-(2-hydroxy-3-(6-(oxazol-5-ylmethoxy)-3,4-dihydroisoquinolin-2(1H)-yl)propyl)benzamide] | 1000 to 10000 | C* (an IC50 ratio of less than 3 fold between the IC50 in the HAP1 MTAP-intact cell line and the HAP1 MTAP-deleted cell line) | 1000 to 10000 | 500 to 5000 | 50 to 500 | 50 to 500 |  |  |  |
| CC(=O)N1CCC(Nc2cc(C(=O)NC[C@H](O)CN3CCc4cc(OCc5ocnc5C)ccc4C3)cc(N3CCN(C)CC3)n2)CC1 [Compound 584, 2-[(1-acetylpiperidin-4-yl)amino]-N-[(2S)-2-hydroxy-3-{6-[(4-methyl-1,3-oxazol-5-yl)methoxy]-1,2,3,4-tetrahydroisoquinolin-2-yl}propyl]-6-(4-methylpiperazin-1-yl)pyridine-4-carboxamide] | 1000 to 10000 | B* (an IC50 ratio greater than or equal to 3 fold but lower than 10 fold between the IC50 in the HAP1 MTAP-intact cell line and the HAP1 MTAP-deleted cell line) | ≥ 10000 |  | 50 to 500 | 50 to 500 |  | 50 to 500 | A (a Ki ratio greater than or equal to 10 fold between the Ki in the presence of SAM and the Ki in the presence of MTA) |
| O=C(NC[C@H](O)CN1CCc2c(ccc(OCc3cnco3)c2Cl)C1)c1cccc(NC2CCC2)c1 [Compound 335, (S)—N-(3-(5-chloro-6-(oxazol-5-ylmethoxy)-3,4-dihydroisoquinolin-2(1H)-yl)-2-hydroxypropyl)-3-(cyclobutylamino)benzamide] | ≥ 10000 | C* (an IC50 ratio of less than 3 fold between the IC50 in the HAP1 MTAP-intact cell line and the HAP1 MTAP-deleted cell line) | ≥ 10000 | ≥ 5000 | 500 to 5000 | 500 to 5000 | A (a Ki ratio greater than or equal to 10 fold between the Ki in the presence of SAM and the Ki in the presence of MTA) |  |  |
| O=C(NC[C@H](O)CN1CCc2c(ccc(OCc3cnco3)c2Br)C1)c1cc(NC2CCCC2)ncn1 [Compound 337] | ≥ 10000 | C* (an IC50 ratio of less than 3 fold between the IC50 in the HAP1 MTAP-intact cell line and the HAP1 MTAP-deleted cell line) | ≥ 10000 | ≥ 5000 | 500 to 5000 | 500 to 5000 | A (a Ki ratio greater than or equal to 10 fold between the Ki in the presence of SAM and the Ki in the presence of MTA) |  |  |
| O=C(NC[C@H](O)CN1CCc2cc(OCc3cnco3)ccc2C1)c1cc(NC2CCC2)ccn1 [Compound 509, (S)-4-(cyclobutylamino)-N-(2-hydroxy-3-(6-(oxazol-5-ylmethoxy)-3,4-dihydroisoquinolin-2(1H)-yl)propyl)picolinamide] | < 1000 | C* (an IC50 ratio of less than 3 fold between the IC50 in the HAP1 MTAP-intact cell line and the HAP1 MTAP-deleted cell line) | 1000 to 10000 |  | 500 to 5000 | 50 to 500 |  | 500 to 5000 | A (a Ki ratio greater than or equal to 10 fold between the Ki in the presence of SAM and the Ki in the presence of MTA) |
